Measured values taken from ChEMBL document CHEMBL1151335, “Clavaric acid: a triterpenoid inhibitor of farnesyl-protein transferase from Clavariadelphus truncatus” (J Nat Prod, 1998).
Activity calls are given as the source filed them. The calls are words filed in the database; no cut-off is given here.

Assays:
[1] = (§1) Inhibition of human recombinant protein farnesyl transferase expressed in Escherichia coli
[2] = Inhibition of geranylgeranyl protein transferase
NIH3T3 = assay: Inhibition of Ras expression in mouse NIH/3T3 cells at 50 uM; format: functional, cell-based
[3] = Cytotoxicity against mouse NIH/3T3 cells at 50 uM; format: cell-based; conditions: nih3t3, 50 µM
[4] = biological target: T1, Squalene synthase (Homo sapiens) (UniProt P37268); assay: Inhibition of squalene synthase
T1 sequence (whole entry): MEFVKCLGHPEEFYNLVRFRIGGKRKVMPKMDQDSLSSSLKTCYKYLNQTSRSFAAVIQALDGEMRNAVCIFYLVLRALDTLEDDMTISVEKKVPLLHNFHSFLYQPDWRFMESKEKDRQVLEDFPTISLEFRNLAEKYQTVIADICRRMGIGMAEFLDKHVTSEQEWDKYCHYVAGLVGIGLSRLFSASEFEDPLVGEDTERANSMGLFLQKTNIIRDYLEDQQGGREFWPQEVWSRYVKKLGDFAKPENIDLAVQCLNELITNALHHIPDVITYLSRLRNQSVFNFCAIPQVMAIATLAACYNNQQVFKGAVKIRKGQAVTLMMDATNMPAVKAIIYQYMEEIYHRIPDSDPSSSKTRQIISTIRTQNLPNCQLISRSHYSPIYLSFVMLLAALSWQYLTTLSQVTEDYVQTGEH

Homo sapiens = species on record: Homo sapiens; assay: as §1

Row | SMILES | IC50 [1] | Activity [2] | Activity (NIH3T3) | Activity [3] | Activity [4] | Activity (Homo sapiens)
1 | C[C@H](CCC(O)C(C)(C)O)[C@H]1CC[C@@]2(C)C3=C(CC[C@]12C)[C@@]1(C)C[C@@H](O)C(=O)C(C)(C)[C@@H]1CC3 (some centres not stated) [CLAVARINONE] | 10.5 µM |  |  |  |  | 
2 | C[C@H](CCC(O)C(C)(C)O)[C@H]1CC[C@@]2(C)C3=C(CC[C@]12C)[C@@]1(C)C[C@@H](OC(=O)CC(C)(O)CC(=O)O)C(=O)C(C)(C)[C@@H]1CC3 (some centres not stated) [CLAVARIC ACID] | 1.3 µM | inactive | Active | Non-toxic | inactive | 
3 | COC(=O)C[C@](C)(O)CC(=O)O[C@@H]1C[C@]2(C)C3=C(CC[C@H]2C(C)(C)C1=O)[C@]1(C)CC[C@H]([C@H](C)CCC(O)C(C)(C)O)[C@@]1(C)CC3 (some centres not stated) |  |  |  |  |  | inactive
